Tested on: atopic dermatitis-induced Balb/c mouse
Assay: SCORAD clinical skin score, DNFB-induced atopic dermatitis in Balb/c mouse
Assay type: in vivo
Design: key to Mouse 1 Sum / Mean (of Sum, SCORAD) / Mouse 2 Sum / Mouse 3 Sum: sum of symptom grades, each 0 (none) to 3 (severe)
Details: DNFB Balb/c; for Mouse 1 Erythema: 0.1% in PBS, 200 μL on back skin daily day 22-28, grade 0-3 (0 no symptom, 1 mild, 2 moderate, 3 severe); for Mouse 1 Abrasion / Mouse 1 Dryness / Mouse 1 Edema / Mouse 1 Eschar / Mouse 1 Lichenification / Mouse 1 Sum / Mouse 2 Abrasion / Mouse 2 Dryness / Mouse 2 Edema / Mouse 2 Erythema / Mouse 2 Eschar / Mouse 2 Lichenification / Mouse 2 Sum / Mouse 3 Abrasion / Mouse 3 Dryness / Mouse 3 Edema / Mouse 3 Erythema / Mouse 3 Eschar / Mouse 3 Lichenification / Mouse 3 Sum / Mean (of Sum, SCORAD): 0.1% topical day 22-28; for Mouse 1 Abrasion / Mouse 1 Dryness / Mouse 1 Edema / Mouse 1 Eschar / Mouse 1 Lichenification / Mouse 2 Abrasion / Mouse 2 Dryness / Mouse 2 Edema / Mouse 2 Erythema / Mouse 2 Eschar / Mouse 2 Lichenification / Mouse 3 Abrasion / Mouse 3 Dryness / Mouse 3 Edema / Mouse 3 Erythema / Mouse 3 Eschar / Mouse 3 Lichenification: grade 0-3; for Mouse 1 Sum / Mouse 2 Sum / Mouse 3 Sum: overall dermatitis score, sum of individual scores; for Mean (of Sum, SCORAD): mean of 3 mice
Method: In order to induce atopy-like dermatitis in Balb/c mice, DNFB sensitization was induced by applying 100 μL of 0.35% 2,4-dinitrofluorobenzene (DNFB) (Sigma, USA) in acetone/olive oil (3:1) on the shaved back skin of the mice. Then, dermatitis was induced by applying 100 μL of 0.25% DNFB on days 6, 9, 12, 15, 18 21, 24 and 27 on the shaved back skin. Control mice were treated with a vehicle of the same volume (FIG. 1A).
After dissolving an N-acetyl or N-acylamino acid in phosphate-buffered saline to 0.1%, 200 μL of the solution was applied on the back skin of the mice every day, from day 22 until day 28 for the Balb/c atopic dermatitis model, and from day 15 until day 21 for the Nc/Nga atopic dermatitis model. When the N-acetyl or N-acylamino acid was treated together with DNFB, they were treated with 12-hour intervals in order to avoid direct reaction between the DNFB and the N-acetyl or N-acylamino acid. A non-treated group and a 2,4-dinitrofluorobenzene (DNFB) group were treated with phosphate-buffered saline of the same volume (FIGS. 1A-1B). As the N-acetylamino acid, products purchased from Sigma-Aldrich (USA), MP scientific (USA), TCI (Tokyo Chemical Industry, Japan), Santacruz (USA), etc. were used without purification.
The degree of skin soothing and the severity of atopic dermatitis were evaluated macroscopically according to the previously established SCORAD (SCORing Atopic Dermatitis) method (Oranje et al., 2007). The degree of symptoms such as edema, erythema, eschar, dryness, abrasion, lichenification, etc. was graded from 0 to 3 (0, no symptom; 1, mild; 2, moderate; 3, severe). The overall dermatitis score was determined from the sum of all individual scores (Table 1). The assessment was performed by an investigator who was blind to the grouping of the mice.

Compound	Mouse 1 Erythema	Mouse 1 Abrasion	Mouse 1 Dryness	Mouse 1 Edema	Mouse 1 Eschar	Mouse 1 Lichenification	Mouse 1 Sum	Mouse 2 Abrasion	Mouse 2 Dryness	Mouse 2 Edema	Mouse 2 Erythema	Mouse 2 Eschar	Mouse 2 Lichenification	Mouse 2 Sum	Mouse 3 Abrasion	Mouse 3 Dryness	Mouse 3 Edema	Mouse 3 Erythema	Mouse 3 Eschar	Mouse 3 Lichenification	also measured
CC[C@H](C)[C@H](NC(C)=O)C(=O)O [N-acetyl-L-isoleucine]	3	1	3	2	3	3	15	2	3	2	2	2	3	14	1	3	2	3	2	3	Mouse 3 Sum: 14; Mean (of Sum, SCORAD): 14.33
CC(=O)N[C@@H](CC(C)C)C(=O)O [N-acetyl-L-leucine]	3	2	3	2	2	2	14	2	3	2	3	2	3	15	2	3	2	3	2	1	Mouse 3 Sum: 13; Mean (of Sum, SCORAD): 14
CSCC[C@H](NC(C)=O)C(=O)O [N-acetyl-L-methionine]	2	2	3	2	2	3	14	2	3	2	3	3	3	16	2	3	2	2	2	3	Mouse 3 Sum: 14; Mean (of Sum, SCORAD): 14.67
CC(=O)N[C@@H](Cc1ccccc1)C(=O)O [N-acetyl-L-phenylalanme]	3	2	3	2	1	2	13	2	3	2	3	2	3	15	1	3	2	3	2	3	Mouse 3 Sum: 14; Mean (of Sum, SCORAD): 14
CC(=O)N1CCC[C@H]1C(=O)O [N-acetyl-L-proline]	3	2	3	2	1	2	13	2	3	3	2	2	2	14	1	3	2	3	2	2	Mouse 3 Sum: 13; Mean (of Sum, SCORAD): 13.33
CC(=O)N[C@@H](CO)C(=O)O [N-acetyl-L-serine]	3	2	2	2	2	2	13	2	3	2	3	2	3	15	2	3	2	3	2	2	Mouse 3 Sum: 14; Mean (of Sum, SCORAD): 14
CC(=O)N[C@@H](Cc1ccc(O)cc1)C(=O)O [N-acetyl-L-tyrosme]	3	2	3	2	3	2	15	2	3	2	3	2	3	15	2	2	2	3	2	2	Mouse 3 Sum: 13; Mean (of Sum, SCORAD): 14.33
CC(=O)N[C@H](C(=O)O)C(C)C [N-acetyl-L-valine]	3	2	2	2	2	3	14	2	2	2	2	2	3	13	1	3	2	2	2	2	Mouse 3 Sum: 12; Mean (of Sum, SCORAD): 13

— patent US12370161B2, “Composition for treating atopy or pruritus comprising N-acetyl or N-acyl amino acid” (STEMDR INC., priority 2017, dated 2025)
